Where a name gives a salt, the structure may show the parent alone. Read-outs that look alike come from different tables or passages of the source. Each block holds one compound with its values, some of them ahead of it.
Tests used:
human prostate tissue = test: Antagonism of phenylephrine-induced contraction of human prostatic tissue; conditions: pA2, phenylephrine-induced contraction, dose-ratio method
Description: An index of this efficacy can be obtained by determining the potency of α1 antagonists to antagonize the contraction of human prostatic tissue induced by an α1 agonist “in vitro”.
Prostatic adenomas were obtained at the time of surgery from patients with symptomatic BPH. […] Isometric tension was measured with a Grass Instrument FT03 force transducer interfaced with a computer. Tissue strips were contracted with varying concentrations of phenylephrine after incubating for 20 minutes in the absence and presence of at least three different concentrations of antagonist. Dose-response curves for phenylephrine were constructed, and the antagonist potency (pA2) was estimated by the dose-ratio method.

[1] = molecular target: T1, human histamine H2 receptor (Homo sapiens, UniProt P25021); test: [3H]tiotidine binding, histamine H2 receptor; conditions: Table 2, cloned human receptor; read-out: Histamine H2 (pK1) (converted)
T1 construct: host or cells: COS-7, transient, DEAE-dextran
Description: The coding sequence of the human H2 receptor was obtained from a human placenta genomic library, and cloned into the cloning site of PCEXV-3 eukaryotic expression vector. The plasmid DNA for the H2 receptor is designated pcEXV-H2, and was deposited on Nov. […] This construct was transfected into COS-7 cells by the DEAE-dextran method.

human D2 receptor = molecular target: T2, human D2 receptor (Homo sapiens, UniProt P14416); test: [3H]spiperone binding, dopamine D2 receptor
T2 construct: host or cells: COS-7, transient, DEAE-dextran
Description: The potency of α1 antagonists at the D2 receptor was determined using membrane preparations from COS-7 cells transfected with the gene encoding the human D2 receptor. The coding region for the human D2 receptor was obtained from a human striatum cDNA library, and cloned into the cloning site of PCDNA 1 eukariotic expression vector. The plasmid DNA for the D2 receptor is designated pcEXV-D2, and was deposited on Nov. […] This construct was transfected into COS-7 cells by the DEAE-dextran method. […] The cell lysates were incubated with [3H]spiperone (2 nM), using 10 μM (+)Butaclamol to determine nonspecific binding.

[2] = test system: Sprague-Dawley normotensive rats; test: Rat orthostatic hypotension model; format: in vivo; conditions: for BP fall / orthostatic fall in BP: i.v.; for orthostatic fall in BP: second tilt
Description: Adult male Sprague-Dawley normotensive rats were anesthetized with sodium pentobarbital (45 mg/kg, i.v.). The femoral vein and artery of the right hindlimb were cannulated for drug administration and blood pressure monitoring, respectively. Heart rate was determined by a cardiotachometer triggered by the blood pressure pulse. The rats were secured in the supine position to a board that could be tilted 90 degrees. When blood pressure and heart rate had stabilized, the rats were subjected to a 90 degree vertical (head up) tilt for 60 seconds. Changes in blood pressure and heart rate from pre-tilt levels were monitored continuously. The rats were returned to the supine position and blood pressure and heart rate were allowed to stabilize. […] When blood pressure had stabilized, the rats were subjected to a second tilt and blood pressure and heart rate were recorded as described above. […] Data from the second tilt are used in statistical analysis.

calcium channels = molecular target: T3, calcium channels (Rattus norvegicus, UniProt P22002); test: [3H]nitrendipine competition binding, calcium channels, rat cardiac muscle membranes; conditions: Table 2, rat cardiac muscle membranes; read-out: Calcium Channel (pK1) (converted)
T3 construct: from tissue; host or cells: rat cardiac muscle membranes
Description: Briefly, the tissue was minced and homogenized in 50 mM Tris-HCl (pH 7.4) containing 0.1 mM phenylmethylsulfonyl fluoride. The homogenates were centrifuged at 1000 g for 15 minutes, the resulting supernatant was centrifuged at 45,000 g for 15 minutes. The 45,000 g pellet was suspended in buffer and centrifuged a second time.

5-α-reductase = conditions: BPH patients; cited from earlier work
[3] = molecular target: T4, human histamine H1 receptor (Homo sapiens, UniProt P35367); test: [3H]mepyramine binding, histamine H1 receptor
T4 construct: host or cells: COS-7, transient, DEAE-dextran
Description: The coding sequence of the human histamine H1 receptor, homologous to the bovine H1 receptor, was obtained from a human hippocampal cDNA library, and was cloned into the eukaryotic expression vector pCEXV-3. The plasmid DNA for the H1 receptor is designated pcEXV-H1, and was deposited on Nov. […] This construct was transfected into COS-7 cells by the DEAE-dextran method.

human 5HT1Dβ receptor = molecular target: T5, human 5HT1Dβ receptor (Homo sapiens, UniProt P28222); test: [3H]serotonin competition binding, 5HT1Dβ receptor
T5 construct: host or cells: LM(tk-) clonal cell line Ltk-11
Description: (§1) 5HT1Dα, 5HT1Dβ, 5HT1E, 5HT1F Receptors: The cell lysates of LM(tk−) clonal cell line stably transfected with the genes encoding each of these 5HT receptor-subtypes were prepared as described above. The cell line for the 5HT1Dα receptor, designated as Ltk-8-30-84, was deposited on Apr. […] The cell for the 5HT1Dβ receptor, designated as Ltk-11, was deposited on Apr. […] The cell line for the 5HT1E receptor, designated 5 HT1E-7, was deposited on Nov. […] The cell line for the 5HT1F receptor, designated L-5-HT1F, was deposited on Dec. […] These preparations were suspended in 50 mM Tris-HCl buffer (pH 7.4 at 37° C.) containing 10 mM MgCl2, 0.2 mM EDTA, 10 μM pargyline, and 0.1% ascorbate.

human 5HT1Dα receptor = molecular target: T6, human 5HT1Dα receptor (Homo sapiens, UniProt P28221); test: [3H]serotonin competition binding, 5HT1Dα receptor
T6 construct: host or cells: LM(tk-) clonal cell line Ltk-8-30-84
Description: as §1

human 5HT2 receptor = molecular target: T7, human 5HT2 receptor (Homo sapiens, UniProt P28223); test: [3H]ketanserin competition binding, 5HT2 receptor
T7 construct: host or cells: COS-7 (DEAE-dextran); the same paragraph also names a deposited line L-NGC-5HT2
Description: The coding sequence of the human 5HT2 receptor was obtained from a human brain cortex cDNA library, and cloned into the cloning site of pCEXV-3 eukaryotic expression vector. This construct was transfected into COS-7 cells by the DEAE-dextran method. […] Nonspecific binding was defined by the addition of 10 μM mianserin.

human 5HT1E receptor = molecular target: T8, human 5HT1E receptor (Homo sapiens, UniProt P28566); test: [3H]serotonin competition binding, 5HT1E receptor
T8 construct: host or cells: LM(tk-) clonal cell line 5HT1E-7
Description: as §1

human 5HT1F receptor = molecular target: T9, human 5HT1F receptor (Homo sapiens, UniProt P30939); test: [3H]serotonin competition binding, 5HT1F receptor
T9 construct: host or cells: LM(tk-) clonal cell line L-5-HT1F
T9 sequence (P30939 1-366): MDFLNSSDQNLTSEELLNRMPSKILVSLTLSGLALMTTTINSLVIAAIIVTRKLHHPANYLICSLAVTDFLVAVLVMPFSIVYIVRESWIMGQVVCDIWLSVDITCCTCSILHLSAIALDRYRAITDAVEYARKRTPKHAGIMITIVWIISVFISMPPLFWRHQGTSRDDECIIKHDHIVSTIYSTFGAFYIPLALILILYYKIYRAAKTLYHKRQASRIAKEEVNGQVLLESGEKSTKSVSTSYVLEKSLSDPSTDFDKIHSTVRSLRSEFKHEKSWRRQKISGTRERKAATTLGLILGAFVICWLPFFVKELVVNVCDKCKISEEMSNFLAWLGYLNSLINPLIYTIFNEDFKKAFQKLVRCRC
Description: as §1

T1 sequence (P25021 whole entry): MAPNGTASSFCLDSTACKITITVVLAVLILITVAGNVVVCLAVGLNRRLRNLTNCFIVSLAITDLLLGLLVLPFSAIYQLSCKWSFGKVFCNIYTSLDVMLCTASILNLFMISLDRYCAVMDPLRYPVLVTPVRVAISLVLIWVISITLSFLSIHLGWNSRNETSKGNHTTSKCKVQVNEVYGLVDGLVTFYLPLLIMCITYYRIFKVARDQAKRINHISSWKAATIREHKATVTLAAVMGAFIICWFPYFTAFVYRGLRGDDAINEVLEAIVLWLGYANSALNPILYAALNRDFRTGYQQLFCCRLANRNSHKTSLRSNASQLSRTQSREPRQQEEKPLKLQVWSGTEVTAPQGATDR
T2 sequence (P14416 whole entry): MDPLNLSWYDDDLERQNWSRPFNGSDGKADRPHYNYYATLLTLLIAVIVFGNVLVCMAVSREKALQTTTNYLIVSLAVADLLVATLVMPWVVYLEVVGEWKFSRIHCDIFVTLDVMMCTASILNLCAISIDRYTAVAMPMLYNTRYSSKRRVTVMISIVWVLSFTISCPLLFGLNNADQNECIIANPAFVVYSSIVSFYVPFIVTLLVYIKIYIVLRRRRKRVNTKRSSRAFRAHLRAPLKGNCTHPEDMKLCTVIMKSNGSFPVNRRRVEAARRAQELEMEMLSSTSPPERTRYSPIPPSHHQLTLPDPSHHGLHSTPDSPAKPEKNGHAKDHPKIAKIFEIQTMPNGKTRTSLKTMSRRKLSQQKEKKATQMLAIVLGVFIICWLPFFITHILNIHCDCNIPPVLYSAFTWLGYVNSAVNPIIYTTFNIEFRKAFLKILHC
T4 sequence (P35367 whole entry): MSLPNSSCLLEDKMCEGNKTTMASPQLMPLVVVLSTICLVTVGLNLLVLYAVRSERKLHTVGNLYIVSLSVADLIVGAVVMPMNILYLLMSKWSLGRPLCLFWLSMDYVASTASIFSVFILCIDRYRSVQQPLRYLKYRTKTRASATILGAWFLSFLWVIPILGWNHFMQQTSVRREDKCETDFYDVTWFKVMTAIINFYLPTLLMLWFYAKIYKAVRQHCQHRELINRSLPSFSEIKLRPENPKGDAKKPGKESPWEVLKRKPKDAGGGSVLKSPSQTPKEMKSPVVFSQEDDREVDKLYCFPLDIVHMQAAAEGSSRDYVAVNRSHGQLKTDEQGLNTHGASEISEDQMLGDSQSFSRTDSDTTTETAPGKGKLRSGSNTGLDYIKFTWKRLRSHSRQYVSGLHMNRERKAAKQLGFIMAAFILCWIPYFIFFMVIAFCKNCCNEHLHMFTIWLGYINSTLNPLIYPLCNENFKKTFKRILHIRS
T7 sequence (P28223 whole entry): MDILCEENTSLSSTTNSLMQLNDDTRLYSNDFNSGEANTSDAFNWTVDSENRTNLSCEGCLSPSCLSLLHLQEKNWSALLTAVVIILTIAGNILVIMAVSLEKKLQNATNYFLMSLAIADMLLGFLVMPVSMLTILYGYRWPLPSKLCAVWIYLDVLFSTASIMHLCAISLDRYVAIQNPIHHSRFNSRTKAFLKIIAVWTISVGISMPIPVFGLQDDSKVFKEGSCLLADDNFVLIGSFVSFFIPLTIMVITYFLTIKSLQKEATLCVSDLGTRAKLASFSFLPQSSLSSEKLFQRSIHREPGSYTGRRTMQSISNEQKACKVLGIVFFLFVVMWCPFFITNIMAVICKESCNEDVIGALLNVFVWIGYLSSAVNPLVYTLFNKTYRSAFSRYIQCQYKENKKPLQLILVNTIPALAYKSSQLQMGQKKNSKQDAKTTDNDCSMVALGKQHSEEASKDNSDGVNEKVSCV
T8 sequence (P28566 whole entry): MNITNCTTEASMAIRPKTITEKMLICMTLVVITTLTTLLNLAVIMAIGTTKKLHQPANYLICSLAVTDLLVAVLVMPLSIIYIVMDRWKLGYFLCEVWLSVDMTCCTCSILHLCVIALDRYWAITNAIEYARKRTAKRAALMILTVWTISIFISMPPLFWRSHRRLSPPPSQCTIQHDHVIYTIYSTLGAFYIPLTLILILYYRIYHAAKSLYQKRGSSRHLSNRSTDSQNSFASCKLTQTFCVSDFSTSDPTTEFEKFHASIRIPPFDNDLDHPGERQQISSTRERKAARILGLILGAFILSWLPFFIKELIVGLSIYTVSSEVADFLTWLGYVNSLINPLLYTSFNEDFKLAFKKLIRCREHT
T6 sequence (P28221 whole entry): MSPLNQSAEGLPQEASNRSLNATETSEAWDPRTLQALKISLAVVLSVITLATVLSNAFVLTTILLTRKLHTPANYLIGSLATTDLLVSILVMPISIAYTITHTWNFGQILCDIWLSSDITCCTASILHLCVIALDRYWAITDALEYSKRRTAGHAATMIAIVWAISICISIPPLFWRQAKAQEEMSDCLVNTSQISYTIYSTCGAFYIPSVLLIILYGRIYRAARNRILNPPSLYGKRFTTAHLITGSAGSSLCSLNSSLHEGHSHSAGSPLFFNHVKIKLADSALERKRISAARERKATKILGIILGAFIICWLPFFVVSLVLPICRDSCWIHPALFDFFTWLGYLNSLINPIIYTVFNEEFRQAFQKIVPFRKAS
T5 sequence (P28222 whole entry): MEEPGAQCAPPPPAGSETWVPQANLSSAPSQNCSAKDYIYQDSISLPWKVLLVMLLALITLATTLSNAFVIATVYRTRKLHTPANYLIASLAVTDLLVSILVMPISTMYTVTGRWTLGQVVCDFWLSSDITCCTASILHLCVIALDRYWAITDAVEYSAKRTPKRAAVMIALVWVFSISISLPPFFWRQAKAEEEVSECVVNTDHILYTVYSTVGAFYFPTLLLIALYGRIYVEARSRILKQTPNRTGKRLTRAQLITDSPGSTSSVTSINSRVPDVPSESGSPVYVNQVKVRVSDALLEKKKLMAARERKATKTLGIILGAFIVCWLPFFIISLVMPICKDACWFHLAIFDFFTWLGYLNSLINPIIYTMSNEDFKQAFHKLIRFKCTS

Compound: COc1cc2nc(N3CCN(C(=O)C4CCCO4)CC3)nc(N)c2cc1OC (stereo not drawn) [Terazosin, 2 [4-(Tetrahydro-2-furoyl)piperazinyl]-4-amino-6,7-dimethoxyquinazoline hydrochloride, reference compound]
Human Prostate (pA) (human prostate tissue): 7.30
Ki [1]: 9120 nM
Ki (human D2 receptor; Table 2, cloned human receptor, read-out: Dopamine D2 (pK1)): > 10000 nM

BP fall ([2]; Dose 1, 10 ug/kg): +
orthostatic fall in BP ([2]; Dose 1, 10 ug/kg): +
BP fall ([2]; Dose 2, 100 ug/kg): ++
orthostatic fall in BP ([2]; Dose 2, 100 ug/kg): ++ or +++
BP fall ([2]; Dose 3, 1000 ug/kg): +++
orthostatic fall in BP ([2]; Dose 3, 1000 ug/kg): ++ or +++
Ki (calcium channels): 26900 nM
Compound: COc1cc2nc(N3CCN(C(=O)c4ccco4)CC3)nc(N)c2cc1OC [Prazosin]
orthostasis (Table 3) ([2]; doses 10, 100, 1000 ug/kg): consistently cause orthostasis at the lowest dose
Human Prostate (pA) (human prostate tissue): 9.08

Compound: CC(C)(C)NC(=O)[C@H]1CC[C@H]2[C@@H]3CC[C@H]4NC(=O)C=C[C@]4(C)[C@H]3CC[C@]12C [Proscar]
patients in whom effective (5-α-reductase): 30%
period required to show results (5-α-reductase): up to 6 months

Compound: O=C(CCCN1CCC(NC(=O)c2ccccc2)CC1)c1ccc(Cl)cc1 (as salt: HCl) [Example 4, 1-[3-(4-chlorobenzoyl)propyl]-4-benzamidopiperidine]
melting point: 243 to 244 °C

Compound: COC(=O)C1=C(C)NC(C)=C(C(=O)NCCCN2CCC(c3ccccc3)(c3ccccc3)CC2)C1c1ccc([N+](=O)[O-])cc1.Cl.O (stereo not drawn) [Compound 2, 2,6-Dimethyl-4-(4-nitrophenyl)-1,4-dihydropyridine-3,5-dicarboxylic acid N-[3-(4,4-diphenylpiperidin-1-yl)-propyl]amide methyl ester hydrochloride hydrate]
Ki [3]: 69.2 nM
Ki (human 5HT1Dβ receptor): > 1000 nM
Human Prostate (pA) (human prostate tissue): 8.94
Ki (human 5HT1Dα receptor): > 100 nM
Ki (human 5HT2 receptor): > 1000 nM
Ki (human 5HT1E receptor): > 10000 nM
Ki [1]: 33.1 nM
Ki (human 5HT1F receptor): > 10000 nM
Ki (human D2 receptor): > 100 nM
